From patent US20260200903A1, “PHARMACEUTICAL COMPOSITION FOR AMELIORATING MALIGNANT DISEASES” (KINKI UNIVERSITY, priority 2020, published 2026)

Legend:
Assay type in all cases: cell-based
CD138 = CD138 expression in KMS-28BM cells, flow cytometry; conditions: 10 days, concentration lower than the IC50 (0.005-50 μM), compared to the positive control
Procedure: As a control, compounds untreated KMS-28BM cells were seeded in 75 cm^2 flasks and incubated for 10 days at 37° C. and 5% CO2. KMS-28BM cells were seeded into 75 cm^2 flasks and pre-cultured for 4 h. After incubation, KMS-28BM cells were treated with […], 0.05 μM M9, 0.1 μM yk-7, 0.1 μM yk-8-3, 50 μM yk-8-1, 0.5 μM M11, […], 0.005 μM M14, 0.005 μM M15, 0.005 μM M16, 0.5 μM M18, and 0.5 μM M19 at final concentrations, and incubated for 10 days at 37° C. and 5% CO2. This added amount is a concentration lower than the IC50 of the above compounds for KMS-28BM cells. After 10 days of incubation, cells were stained with anti-CD138 antibody, a marker of multiple myeloma grade, and CD138 expression was measured using BD LSRFortessa.
Results are shown in FIG. 17, FIG. 18, FIG. 19 and FIG. 20. The horizontal axis represents the expression level of CD138 and the vertical axis represents the number of cells.

CD20 [1] = experiment: CD20 expression in L363 cells, flow cytometry; conditions: 10 days, concentration lower than the IC50 (0.005-50 μM), compared to the positive control
Procedure: As a control, compounds untreated L363 cells were seeded in 75 cm^2 flasks and incubated for 10 days at 37° C. and 5% CO2. L363 cells were seeded into 75 cm^2 flasks and pre-cultured for 4 h. After incubation, L363 cells were treated with 0.1 μM M7, 0.05 μM M9, 0.1 μM yk-7, 0.1 μM yk-8-3, 50 μM yk-8-1, 0.1 μM M11, 0.01 μM M12, 0.005 μM M14, 0.005 μM M15, 0.005 μM M16, 1 μM M18, and 1 μM M19 at final concentrations, and incubated for 10 days at 37° C. and 5% CO2. This added amount is a concentration lower than the IC50 of the above compounds for L363 cells. After 10 days of incubation, cells were stained with anti-CD20 antibody, a B cell marker, and CD20 expression was measured using BD LSRFortessa. CCRF-SB cells were used as CD20-positive controls.
Results are shown in FIG. 29, FIG. 30, FIG. 31, and FIG. 32. The horizontal axis represents the expression level of CD20 and the vertical axis represents the number of cells.

[2] = test system: RPMI8226/B cells (bortezomib-resistant myeloma cell line); experiment: Cell death inducing effect on RPMI8226/B cells, trypan blue staining; conditions: Homo sapiens, RPMI-8226; RPMI8226/B (myeloma; bortezomib resistance), cell viability
Procedure: (§1) RPMI8226/B cells (bortezomib-resistant myeloma cell line) were cultured under 5% CO2 at 37° C. The culture medium used RPMI-1640 medium with 100 μg/mL penicillin, 100 U/mL streptomycin and fetal bovine serum. RPMI8226/B cells were seeded into 96-well plates and incubated with each concentration of the compounds was added, and cell viability was determined by the trypan blue staining.
(§2) For controls, only 0.5% DMSO (diluted in PBS) used to dissolve the compounds was added. For each concentration, each bar line is indicated by an arrow with the sign “n, a, 1, 2, 3, 4, 5, 6, 7, 8, 9, 10, 11, 12” from left to right. The “1, 3, 5, 7, 9, 11” are omitted from the graph, but the sign “1” shall be indicated by an arrow between the signs “a” and “2”, the sign “3” between the signs “2” and “4”, and other odd numbers shall likewise be indicated by arrows between even numbers before and after.
(§3) The sign “n” is the norathyriol (formula (n)) administration group, the sign “a” is the mangiferin 8a (formula (a)) administration group, the sign “1” is the yk-7 (formula (1)) administration group, the sign “2” is the yk-8-1 (formula (2)) administration group, the sign “3” is the yk-8-3 (formula (3)) administration group, the sign “4” is the M7 (formula (4)) administration group, the sign “5” is the M9 (formula (5)) administration group, the sign “6” is the M11 (formula (6)) administration group, the sign “7” is the M12 (formula (7)) administration group, the sign “8” is the M14 (formula (8)) administration group, the sign “9” is the M15 (formula (9)) administration group, the sign “10” is the M16 (formula (10)) administration group, the sign “11” is the M18 (formula (11)) administration group, the sign “12” is the M19 (formula (12)) administration group, respectively. The IC50 values for each compound is also listed in the upper right corner of the figure.

CD20 [3] = experiment: CD20 expression in KMS-28BM cells, flow cytometry; conditions: 10 days, concentration lower than the IC50 (0.005-50 μM), compared to the positive control
Procedure: As a control, compounds untreated KMS-28BM cells were seeded in 75 cm^2 flasks and incubated for 10 days at 37° C. and 5% CO2. KMS-28BM cells were seeded into 75 cm^2 flasks and pre-cultured for 4 h. After incubation, KMS-28BM cells were treated with […], 0.05 μM M9, 0.1 μM yk-7, 0.1 μM yk-8-3, 50 μM yk-8-1, 0.5 μM M11, […], 0.005 μM M14, 0.005 μM M15, 0.005 μM M16, 0.5 μM M18, and 0.5 μM M19 at final concentrations, and incubated for 10 days at 37° C. and 5% CO2. This added amount is a concentration lower than the IC50 of the above compounds for KMS-28BM cells. After 10 days of incubation, cells were stained with anti-CD20 antibody, a B cell marker, and CD20 expression was measured using BD LSRFortessa. CCRF-SB cells were used as CD20-positive controls.
Results are shown in FIG. 21, FIG. 22, FIG. 23, and FIG. 24. The horizontal axis represents the expression level of CD20 and the vertical axis represents the number of cells.

[4] = test system: CCRF-SB cells (acute lymphocytic leukemia cell line); experiment: Cell death inducing effect on CCRF-SB cells, trypan blue staining; conditions: Homo sapiens; CCRF-SB (acute lymphoblastic leukemia), cell viability
Procedure: as §1, with “CCRF-SB” for “RPMI8226/B”, “(acute lymphocytic leukemia” for “(bortezomib-resistant myeloma”
as §2, §3

[5] = test system: RPMI1788 cells (human normal B cell line); experiment: Cell death inducing effect on RPMI1788 normal B cells, trypan blue staining; conditions: Homo sapiens, RPMI-1788; RPMI1788 (normal B lymphocyte), cell viability
Procedure: as §1, with “RPMI1788” for “RPMI8226/B”, “(human normal B” for “(bortezomib-resistant myeloma”
as §2, §3

Structure (SMILES): CCCCC(=O)OC[C@H]1O[C@@H](c2c(O)cc3oc4cc(O)c(O)cc4c(=O)c3c2O)[C@H](OC(=O)CCCC)[C@@H](OC(=O)CCCC)[C@@H]1OC(=O)CCCC [yk-7, 2′,3′,4′,6′-tetra-O-valerylmangiferin]
- CD138 expression levels (CD138): markedly reduced
- CD20 expression level (CD20 [1]): significantly increased
- IC50 [2]: 79 nM
- CD20 expression level (CD20 [3]): significantly increased
- IC50 [4]: 1840 nM
- IC50 [5]: 2760 nM
